This is an account of results in patent US7022699B2, “Cyclohexenyl phenyl diazepines vasopressin and oxytocin receptor modulators” (Wyeth, priority 2001, dated 2006).

Data set [1] addresses T1, human vasopressin V1a receptor subtype (Homo sapiens, UniProt P37288).
T1 construct: host or cells: CHO cells, stably transfected (pZeoSV vector for the Thibonnier cells); membranes
The data set can be described thus: Vasopressin binding in CHO cell membranes expressing human vasopressin V1a subtype receptors ([3H]Manning ligand). The conditions noted are these: for inhibition at 0.1 µM / V1a % inhibition @ 100 nM: 100 nM, values without parentheses; for pIC50: values in parentheses. The text has this: Vasopressin Binding in Chinese Hamster Ovary Cell Membranes Expressing Human Vasopressin V1a Subtype Receptors
Chinese hamster ovary cells (CHO cells) stably transfected with the human vasopressin V1a subtype receptors were either obtained from Biosignal Inc., 1744 rue Williams, Montreal, Quebec, Canada or obtained from M. Thibonnier, Case Western Reserve University School of Medicine, Cleveland, Ohio. A. Passaging and Amplification of Cells: CHO cells transfected with the human vasopressin V1a subtype receptors obtained from M. Thibonnier (pZeoSV vector) are allowed to grow to confluency (approx. >90%) in T-150 flasks under sterile conditions, in a cell culture medium of F-12 Nutrient Mixture (HAM) with L-glutamine (Gibco Cat. #11765-054) containing 15 mM HEPES (Gibco Cat. #15630-080), 1% antibiotic/antimycotic (add 5 mL 100×, Gibco Cat. #15240-062 per 500 mL F-12), 250 μg/mL Zeocin (add 1.25 mL of 100 mg/mL Invitrogen R-250-01 per 500 mL F-12) and 10% Fetal Bovine Serum (Qualified, heat inactivated, Gibco Cat. #16140-063). The medium is removed by aspiration and the cells are washed with 10 mL of Hank's Balanced Salt solution (Gibco Cat. #14175-095). The salt solution is removed by aspiration and the cells are trypsinized with 5 mL of trypsin-EDTA (0.05% trypsin, 0.53 mM EDTA-4Na, Gibco Cat. #25300-070) for 1 min. The trypsin is removed by aspiration and the cells dislodged by tapping. Cell Culture medium (eg, 30 mL for 1:30 split) is immediately added and mixed well to inactivate trypsin. 1 mL of detached cells is added to new culture flasks containing fresh cell culture medium (eg, into 25 mL per T-150 flask), and mixed gently. The cells are incubated at 37° C. in 5% CO2. The medium is changed at 3 to 4 days interval (or as appropriate). The cells grow to confluency (approx. >75%–95%) within 7–8 days. All steps are done under sterile conditions. B. Membrane Preparation: The cells are washed twice gently with Hank's Balanced Salt solution (e.g.,. use 10 mL per T-150 flask). The excess is removed and the cells are bathed for 15–30 min. in an enzyme-free Cell Dissociation Buffer (e.g. use 8 mL Hank's Based, Gibco Cat. #13150-016 per T-150 flask) until the cells are loosened. The contents are transferred to centrifuge tubes (50 mL size) kept in ice bath. All subsequent steps are done at 4° C. The tubes are centrifuged at 300×g for 15 min (1380 rpm on SORVAL, Model RT6000D, using rotor for 50 mL tubes). The supernatant is discarded and the cells suspended in homogeneizing buffer (10 mM Tris-HCl containing 0.25 M sucrose and 1 mM EDTA, pH 7.4) ensuring that the volume of the buffer is about ten times the volume of the cell pellet. The cells are pooled into a centrifuge tube (50 mL) and homogenized with Polytron at setting 6 for 10 sec. The homogenate is transferred into a Potter-Elvjehm homogenizer and homogenized with 3 strokes. The homogenate is centrifuged at 1500×g for 10 min at 4° C. (3100 rpm using SORVAL, model RT6000D, using rotor for 50 mL tubes). The pellet is discarded. The supernatant is centrifuged at 100,000×g for 60 min. at 4° C. (Beckman L8-80M ultracentrifuge; spin at 37,500 rpm with rotor type 70 Ti for 50 mL tubes; 38,000 rpm with type 80Ti for 15 mL tubes; or 35,800 rpm with rotor type 45Ti). The supernantant is discarded and the pellet suspended in 3 to 4 mL of Tris buffer (50 mM TRIS-HCl, pH 7.4). The protein content is estimated by the Bradford or Lowry method. The volume of the membrane suspension is adjusted with the membrane buffer (50 mM Tris-HCl containing 0.1% BSA and 0.1 mM PMSF) to give 3.0 mg/mL (or as appropriate) of protein. The membranes are aliquoted and stored at −70° C. C. […]

pIC50: −log10 of the molar value.

T1 sequence (P37288 whole entry): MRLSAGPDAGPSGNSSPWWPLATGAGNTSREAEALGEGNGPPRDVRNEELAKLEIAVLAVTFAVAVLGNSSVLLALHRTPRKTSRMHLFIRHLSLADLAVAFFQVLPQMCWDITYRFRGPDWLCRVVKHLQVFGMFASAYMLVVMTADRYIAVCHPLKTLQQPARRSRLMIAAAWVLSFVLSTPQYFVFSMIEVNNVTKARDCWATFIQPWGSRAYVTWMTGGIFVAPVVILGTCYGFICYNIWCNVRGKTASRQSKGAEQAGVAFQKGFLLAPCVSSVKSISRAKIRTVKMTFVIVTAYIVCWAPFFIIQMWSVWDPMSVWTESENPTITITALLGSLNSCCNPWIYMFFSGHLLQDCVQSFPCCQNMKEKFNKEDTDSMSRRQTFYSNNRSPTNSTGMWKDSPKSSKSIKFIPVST

The term inhibition denotes the drop in the measured response relative to a control, in per cent. As to `CC1=C(c2ccc(C(=O)N3Cc4cccn4Cc4ccccc43)cc2C)CCCC1O` (racemic) [Example 5, (10,11-Dihydro-5H-pyrrolo[2,1-c][1,4]benzodiazepin-10-yl)-[4-(3-hydroxy-2-methyl-cyclohex-1-en-1-yl)-3-methyl-phenyl]-methanone], the inhibition at 0.1 µM in data set [1] was found to be 0%.
Still for that read-out and setting: for `CC1=C(c2ccc(C(=O)N3Cc4cccn4Cc4ccccc43)cc2C)CCC[C@H]1O` (single isomer, unassigned) [Example 41] the value was 36%.
Turning to `CC1=C(c2ccc(C(=O)N3Cc4cccn4Cc4ccccc43)cc2C)CCC[C@@H]1O` (single isomer, unassigned) [Example 43], in data set [1], the inhibition at 0.1 µM came out at 93%.
In general, pIC50 refers to the IC50 on a negative log10 scale, so that one unit is a factor of ten. Broadly, the melting point is the temperature of the solid-liquid transition. As to `COc1cc(C2=CCCCC2)c(Cl)cc1C(=O)N1Cc2cccn2Cc2ccccc21` [Example 1, 10-(5-Chloro-4-cyclohex-1-en-1-yl-2-methoxybenzoyl)-10,11-dihydro-5H-pyrrolo[2,1-c][1,4]benzodiazepine], the melting point was 92 to 98 °C. Moreover, in data set [1], the pIC50 was 6.63.
The molecule `Cc1cc(C(=O)N2Cc3cccn3Cc3ccccc32)ccc1C1=CCCCC1` [Example 2, (10,11-Dihydro-5H-pyrrolo[2,1-c][1,4]benzodiazepin-10-yl)-(4-cyclohex-1-en-1-yl-3-methyl-phenyl)-methanone] showed a melting point of 182 to 183 °C. Besides, in data set [1], the inhibition at 0.1 µM was found to be 74%.
For the molecule `Cc1cc(C(=O)N2Cc3cccn3Cc3ccccc32)ccc1C1=CCCc2ccccc21` [Example 3, (10,11-Dihydro-5H-pyrrolo[2,1-c][1,4]benzodiazepin-10-yl)-[4-(3,4-dihydro-naphthalen-1-yl)-3-methyl-phenyl]-methanone], the melting point worked out at 108 °C. Also, the negative-log IC50 (pIC50) in data set [1] was 6.36.
Consider `CC1=C(c2ccc(C(=O)N3Cc4cccn4Cc4ccccc43)cc2C)CCCC1=O` [Example 4, 3-[2-Methyl-4-(5H-pyrrolo[2,1-c][1,4]benzodiazepin-10(11H)-yl-carbonyl)phenyl]-2-methyl-cyclohex-2-en-1-one], for which the inhibition at 0.1 µM in data set [1] amounted to 7%.
Same read-out and setting: for `CC1=C(c2ccc(C(=O)N3Cc4cccn4Cc4ccccc43)cc2C)CCC[C@H]1O` [Example 6, (10,11-Dihydro-5H-pyrrolo[2,1-c][1,4]benzodiazepin-10-yl)-[4-((3R)-3-hydroxy-2-methyl-cyclohex-1-en-1-yl)-3-methyl-phenyl]-methanone] the value was 45%.
The molecule `CC1=C(c2ccc(C(=O)N3Cc4cccn4Cc4ccccc43)cc2)CCCC1` [Example 7, (10,11-Dihydro-5H-pyrrolo[2,1-c][1,4]benzodiazepin-10-yl)-[4-(2-methyl-cyclohex-1-en-1-yl)-phenyl]-methanone] gave a melting point of 119 to 120 °C. Moreover, in data set [1], the pIC50 was 7.34.
On to `COc1cc(C2=CCCc3ccccc32)c(Cl)cc1C(=O)N1Cc2cccn2Cc2ccccc21` [Example 8, 10-[5-Chloro-4-(3,4-dihydro-naphthalen-1-yl)-2-methoxybenzoyl]-10,11-dihydro-5H-pyrrolo[2,1-c][1,4]benzodiazepine], for which the melting point is 209 to 210 °C. In addition, the inhibition at 0.1 µM in data set [1] is -9%.
`COc1cc(C2=C(C)C(=O)CCC2)c(Cl)cc1C(=O)N1Cc2cccn2Cc2ccccc21` [Example 9, 3-[2-Chloro-5-methoxy-4-(5H-pyrrolo[2,1-c][1,4]benzodiazepin-10(11H)-yl-carbonyl)phenyl]-2-methyl-cyclohex-2-en-1-one]: the inhibition at 0.1 µM in data set [1] was found to be 17%.
Still for that read-out and setting: for `O=C(c1ccc(C2=CCCCC2)cc1Cl)N1Cc2cccn2Cc2ccccc21` [Example 10, (10,11-dihydro-5H-pyrrolo[2,1-c][1,4]benzodiazepin-10-yl)-[2-chloro-4-(cyclohex-1-en1-yl)-phenyl]-methanone] the value was 94%.
Take `O=C(c1ccc(C2=CCCc3ccccc32)cc1Cl)N1Cc2cccn2Cc2ccccc21` [Example 11, (10,11-Dihydro-5H-pyrrolo[2,1-c][1,4]benzodiazepin-10-yl)-[2-chloro-4-(3,4-dihydro-naphthalen-1-yl)-phenyl]-methanone]: the melting point lay in the range of 174 to 176 °C. The inhibition at 0.1 µM in data set [1] came out at 6%.
Consider `CC1(C)CCCC=C1c1ccc(C(=O)N2Cc3cccn3Cc3ccccc32)c(Cl)c1` [Example 12, (10,11-Dihydro-5H-pyrrolo[2,1-c][1,4]benzodiazepin-10-yl)-[2-chloro-4-(6,6-dimethyl-cyclohex-1-en-1-yl)-phenyl]-methanone], for which the inhibition at 0.1 µM in data set [1] turned out to be 54%.
Still for that read-out and setting: for `CC1=C(c2ccc(C(=O)N3Cc4cccn4Cc4ccccc43)c(Cl)c2)CCCC1=O` [Example 13, (10,11-Dihydro-5H-pyrrolo[2,1-c][1,4]benzodiazepin-10-yl)-[2-chloro-4-(2-methyl-3-oxo-cyclohex-1-en-1-yl)-phenyl]-methanone] the value was 95%.
For the molecule `CC1=C(c2ccc(C(=O)N3Cc4cccn4Cc4ccccc43)c(Cl)c2)CCCC1O` (stereo not drawn) [Example 14, (10,11-Dihydro-5H-pyrrolo[2,1-c][1,4]benzodiazepin-10-yl)-[2-chloro-4-(3-hydroxy-2-methyl-cyclohex-1-en-1-yl)-phenyl]-methanone], the inhibition at 0.1 µM in data set [1] is 10%.
In the case of `O=C(c1ccc(C2=CCCCC2)cc1)N1Cc2cccn2Cc2ccccc21` [Example 15, (10,11-Dihydro-5H-pyrrolo[2,1-c][1,4]benzodiazepin-10-yl)-(4-cyclohex-1-en-1-yl-phenyl)-methanone], the melting point worked out at 156 °C. For the same molecule, the pIC50 in data set [1] was 7.45.
For the molecule `CC(C)(C)C1CCCC=C1c1ccc(C(=O)N2Cc3cccn3Cc3ccccc32)cc1` (stereo not drawn) [Example 20, (10,11-5H-Dihydro-pyrrolo[2,1-c][1,4]benzodiazepin-10-yl)-[4-(6-tert-butyl-cyclohex-1-en-1-yl)-phenyl]-methanone], the “V1a % inhibition @ 100 nM” value in data set [1] turned out to be 4%.
Same read-out and setting: for `O=C(c1ccc(C2=CCC3CCC2C3)cc1)N1Cc2cccn2Cc2ccccc21` (stereo not drawn) [Example 21] the value was 37%.
Consider `O=C(c1ccc(C2=CC(O)CCC2)cc1)N1Cc2cccn2Cc2ccccc21` (stereo not drawn) [Example 25, (10,11-Dihydro-5H-pyrrolo[2,1-c][1,4]benzodiazepin-10-yl)-[4-(3-hydroxy-cyclohex-1-en-1-yl)-phenyl]-methanone], for which the inhibition at 0.1 µM in data set [1] is 76%.
On the same count and under the same terms, for `CC1=C(c2ccc(C(=O)N3Cc4cccn4Cc4ccccc43)cc2)CCCC1O` (stereo not drawn) [Example 27, (10,11-Dihydro-5H-pyrrolo[2,1-c][1,4]benzodiazepin-10-yl)-[4-(3-hydroxy-2-methyl-cyclohex-1-en-1-yl)-phenyl]-methanone] the value was 89%; for `Cc1cc(C(=O)N2Cc3cccn3Cc3ccccc32)ccc1C1=CC(O)CCC1` (stereo not drawn) [Example 40, (10,11-Dihydro-5H-pyrrolo[2,1-c][1,4]benzodiazepin-10-yl)-[4-(3-hydroxy-cyclohex-1-en-1-yl)-3-methyl-phenyl]-methanone], 91%; for `CC1=C(c2ccc(C(=O)N3Cc4cccn4Cc4ccccc43)cc2C)CCCC1N` (stereo not drawn) [Example 45, [4-(3-Amino-2-methyl-cyclohex-1-en-1-yl)-3-methyl-phenyl]-(10,11-dihydro-5H-pyrrolo[2,1-c][1,4]benzodiazepin-10-yl)-methanone], 50%.
